Measurements: patent publication US20230220480A1, “IRON-SCORE AND IN VITRO METHOD FOR IDENTIFYING HIGH RISK DLBCL SUBJECTS AND THERAPEUTIC USES AND METHODS” (CENTRE NATIONAL DE LA RECHERCHE SCIENTIFIQUE (CNRS), priority 2019, published 2023)

Experiments:
16 DLBCL cell lines = test: Cell viability assay, panel of 16 DLBCL cell lines; assay type: cell-based, human; conditions: 96H, read-out: IC50 range over all DLBCL cell lines
Source text: The 16 DLBCL cell lines (U2932, OCI-LY-3, NU-DHL-1, OCI-LY-19, DB, SUDHL4, OCILY1, SUDHL5, DOHH2, SUDHL10, HT, RI-1, SU-DHL-6, NUDUL-1, WSU-DLCL-2 and OCI-LY-7) were purchased from the DSMZ (Leibniz-Institut DSMZ—Deutsche Sammlung von Mikroorganismen und Zellkulturen GmbH, Germany). They were maintained in RPMI-1640 (Gibco, Invitrogen), supplemented with 10% fetal bovine serum (PAA laboratory GmbH) for U2932, SUDHL-4, HT, DOHH2, SUDHL-10, RI-1, WSU-DLCL-2 cell lines, 20% FBS OCI-LY3, DB, SUDHL-5, NUDHL-1, SU-DHL-6, NUDUL-1 cell lines. OCI-LY1 and OCI-LY7 were cultured in IMDM (Gibco, Invitrogen), supplemented with 20% fetal bovine serum and OCI-LY19 was cultured in MEM alpha modified (Gibco, Invitrogen), supplemented with 20% fetal bovine serum. […]
DLBCL-derived cell lines were cultured for 4 days in 96-well flat-bottom microtiter plates in RPMI 1640 medium, 10% or 20% FCS (control medium) in the presence of various compounds. The number of viable cells in culture was determined using the CellTiter-Glo Luminescent Cell Viability Assay from Promega, Madison, Wis., USA using a Centro LB 960 luminometer (Berthold Technologies, Bad Wildbad, Germany).
This test is based on quantitation of the intracellular ATP present, which signals the presence of metabolically active cells. Data are expressed as the mean percentage of six replicates, normalized to the untreated control. […]

[1] = test system: OCI-LY3 and DB DLBCL cells; test: ROS production, CM-H2DCFDA staining; assay type: cell-based, human
[2] = test system: DB and OCI-LY3 DLBCL derived cell-line; test: phospho-RPA2 T21 foci immunofluorescence; assay type: cell-based, human; conditions: 50 nM, 24H
Experimental: DB and OCI-LY3 DLBCL derived cell-line was treated with 50 nM Ironomycin during 24H. Immunofluoresence staining for foci of phospho-RPA2 T21, S phase (EdU integration) and DAPI was performed in DLBCL cells. (Magnification x63). Scale bar: 10 μm.
At least 300 cells were counted for each group. Statistical difference was tested using a Fisher's exact test. * P<0.05, ** P<0.01, *** P<0.001, **** P<0.0001. NS: non-significant.

CD34+ cells = test: Hematopoietic progenitor colony forming units (CFU) assay; conditions: 14 days
Experimental: Hematopoietic progenitor colony-forming units assay were performed with CD34+ cells from apheresis of 5 donors. […] CFU-C, CFU-E and CFU-GM were counted after 14 days culture (C).
Mobilized peripheral blood of donor were collected using an apheresis machine. Cells were CD34+ enriched by immuno-magnetic cell separation and fluorescence activated cell sorting (FACS).
About 250 viable CD34+ cells/mL were cultured in Methocult GF H84434 Medium (Stem Cell, #84434). Using a 3 mL syringe attached to a 16 gauge blunt end needle, 1 mL of the mixture was dispensed into 2 35 mm dishes.
Dishes were incubated at 37° C., in 5% C02, with >95% humidity for 14 days.

C#CCN[C@@H]1C=C[C@]2(O[C@H]([C@@H](CC)C(=O)[C@@H](C)[C@@H](O)[C@H](C)[C@@H]3O[C@@H]([C@@H](CC)C(=O)O)CC[C@@H]3C)[C@@H](C)C[C@H]2C)O[C@@]12CC[C@@](C)([C@H]1CC[C@](O)(CC)[C@H](C)O1)O2 [Ironomycin]
IC50 (16 DLBCL cell lines): 7.2 to 91.5 nM | inhibition of induced ROS production by ferrostatin and GSH [1]: partially inhibited by ferrostin but not by gluthation (GSH) | ROS production ([1]; CM-H2DCFDA staining): induces ROS production | phosphorylation of RPA2 on threonine 21 (replication stress) [2]: increased phosphorylation of replication protein A sub-unit 2 (RPA2) on threonine 21 | toxicity on CFU-C, CFU-E and CFU-GM formation (CD34+ cells; 10 nM, N=5): no significant toxicity | hematopoietic toxicity compared to conventional chemotherapy (CD34+ cells; 50 and 100 nM): significant lower hematopoietic toxicity
